Experimental data reported in article PMC3930474 (Journal of controlled release : official journal of the …, 2013).

Assays:
[1] = mouse, in vivo, iv
4T1 tumors [2] = experiment: Tumor homing / tumor extravasation of FAM-labeled peptides and conjugates; type: in vivo, mouse; conditions: FAM-labeled peptide i.v., three hours after the injection
4T1 tumors [3] = experiment: Evans Blue assay; type: in vivo, mouse; conditions: mice

## CRGDK/RGPD/EC (disulfide) [iRGD]
[1]
  plasma half-life: 8 min
4T1 tumors [2]
  peptide signal in the tumors: had weakened
4T1 tumors [3]
  duration of the bystander effect after a bolus injection: less than one hour
